Assay results published in US20250108019A1, “USE OF LACTIC ACID IN PRODUCT FOR REGULATING AND PROMOTING TISSUE GROWTH” (CHANGCHUN SINOBIOMATERIALS CO., LTD., priority 2022, published 2025).

Assays:
[1] = system: tendon—Achilles tendon; assay: Tendon diameter after local injection in mice (Sirius red, 100× optical microscope); format: in vivo; conditions: for Tendon measured value, mean: 0.1 ml injection daily, experimental side
Text: (§1) Experimental animals: Male experimental mice weighing 23±4 g were selected and divided into several groups, with 10 mice in each group. Experimental site: Different tissue sites of mice were selected for the test, specifically muscle—rectus femoris, tendon—Achilles tendon, cartilage—ear cartilage tissue. Experimental group: ? 25 mmol/L aqueous lactic acid solution • ? 50 mmol/L aqueous lactic acid solution • ? 75 mmol/L aqueous lactic acid solution and • ? 0.9% sodium chloride injection Experimental procedure: The right side of the experimental mouse was the experimental side (injected with lactic acid solutions at different concentrations), and the left side was the control side (injected with 0.9% sodium chloride injection). The experiment started with a single injection of 0.1 ml of the corresponding experimental solution at the experimental side every day from 1 to 7 days. […] The experimental and control sides of each mouse were selected for fixation and pathological histological examination. • 1) The tissue to be observed was cut and fixed, and then stained with Sirius red to observe the effects of the injection solution on the tissues at various sites. • 2) The experimental side and the control side were randomly selected for sectioning, the diameter of each tissue was measured under a 100× optical microscope, and the average value of the experimental side and the control side was calculated using the following formula: [formula] The diameters on both sides were compared, and the effects of the lactic acid solution on each tissue site were analyzed using the SSPS 21 calculation results.

[2] = system: sciatic nerve; assay: Sciatic function index (SFI) after sciatic nerve clamp injury; format: in vivo, mice; conditions: 0.1 ml of 50 mmol/L intraperitoneal
Protocol: Experimental animals: Male experimental mice weighing 30˜35 g were selected and divided into 3 groups, with 26 mice in each group. Experimental site: The sciatic nerve of mice was selected. Experimental groups: ? model group (injury caused by sciatic nerve clamp injury); ? treatment group (after injuried by sciatic nerve clamp, 0.1 ml of 50 mmol/L aqueous lactic acid solution was given by intraperitoneal injection each time); and ? sham group (only the sciatic nerve was freed). Experimental procedure: The treatment group was given medication for 14 consecutive days, and the model group and sham group were given an equal amount of 0.9% sodium chloride injection. • (1) The functional recovery of the sciatic nerve of mice after injury was tracked and evaluated by using the sciatic function index (SFI) at 7 and 14 days after surgery. […] The footprints of the left injured side (E) and the right normal side (N) of the experimental mice were measured. The footprint length (PL), the distance from the first toe to the fifth toe (TS), and the distance from the second toe to the fourth toe (IT) were recorded and put into the formula for calculation. […] The formula is as follows: SFI=109.5(ETS−NTS)/NTS−38.3(EPL−NPL)/NPL+13.3(EIT−NIT)/NIT−8.8 • (2) The degree of toe spread on the injured side was recorded at 3, 7, and 14 days after surgery. […]

[3] = system: muscle—rectus femoris; assay: Muscle tissue diameter after local injection in mice (Sirius red, 100× optical microscope); format: in vivo; conditions: for Muscle tissue measured value, mean: 0.1 ml injection daily, experimental side
Text: as §1

[4] = system: sciatic nerve; assay: Toe spread score after sciatic nerve clamp injury; format: in vivo, mice; conditions: 0.1 ml of 50 mmol/L intraperitoneal
Protocol: Experimental animals: Male experimental mice weighing 30˜35 g were selected and divided into 3 groups, with 26 mice in each group. Experimental site: The sciatic nerve of mice was selected. Experimental groups: ? model group (injury caused by sciatic nerve clamp injury); ? treatment group (after injuried by sciatic nerve clamp, 0.1 ml of 50 mmol/L aqueous lactic acid solution was given by intraperitoneal injection each time); and ? sham group (only the sciatic nerve was freed). Experimental procedure: The treatment group was given medication for 14 consecutive days, and the model group and sham group were given an equal amount of 0.9% sodium chloride injection. […] The evaluation grades are classified as scores 0˜3, with no spread being score 0 and full spread being score 3.

[5] = system: cartilage—ear cartilage tissue; assay: Ear cartilage diameter after local injection in mice (Sirius red, 100× optical microscope); format: in vivo; conditions: 50 mmol/L; for Ear cartilage tissue measured value, mean: 0.1 ml injection daily, experimental side
Text: as §1

With `CC(O)C(=O)O` (centres unmarked) [lactic acid] as the compound, how does the “Tendon measured value, mean” value ([1]; 25 mmol/L, 3 days, * P<0.05 vs control) read?
The value was 853.9* μm.

And the “Tendon measured value, mean” value ([1]; 25 mmol/L, 14 days)?
The value was 877.1 μm.

And the “Tendon measured value, mean” value ([1]; 25 mmol/L, 21 days)?
The value was 438.3 μm.

And the “Achilles tendon on the experimental side, histological observation” value (shortened to “Achilles tendon … histological observation”) ([1]; 25 mmol/L, 3 days after injection, FIG. 3)?
Its value is “significantly thickened”.

What about the “Tendon measured value, mean” value ([1]; 50 mmol/L, 3 days) of the same compound?
Its value is 484.6 μm.

And the “Tendon measured value, mean” value ([1]; 50 mmol/L, 7 days)?
Its value is 547.8 μm.

What about the “Tendon measured value, mean” value ([1]; 50 mmol/L, 14 days, * P<0.05 vs control) of the same compound?
Its value is 769.5* μm.

What about the “Tendon measured value, mean” value ([1]; 50 mmol/L, 21 days) of the same compound?
Its value is 543.9 μm.

What about the “Achilles tendon … histological observation” value ([1]; 50 mmol/L, Day 14, FIG. 4) of the same compound?
The value was “significantly thickened”.

What about the “Tendon measured value, mean” value ([1]; 75 mmol/L, 3 days, * P<0.05 vs control) of the same compound?
The value was 970.9* μm.

What about the “Tendon measured value, mean” value ([1]; 75 mmol/L, 7 days, * P<0.05 vs control) of the same compound?
Its value is 832.2* μm.

What about the “Tendon measured value, mean” value ([1]; 75 mmol/L, 14 days) of the same compound?
Its value is 578.2 μm.

What about the “Tendon measured value, mean” value ([1]; 75 mmol/L, 21 days, * P<0.05 vs control) of the same compound?
Its value is 970.1* μm.

What about the “Achilles tendon … histological observation” value ([1]; 75 mmol/L, Day 3, 7, and 21, FIG. 5) of the same compound?
Its value is “significantly thickened”.

And the SFI score ([2]; 7 days after surgery, FIG. 7)?
The SFI score was “significantly lower than those in the sham group”.

What about the SFI score ([2]; 14 days after surgery, P<0.01, FIG. 7) of the same compound?
Its SFI score is “significantly increased”.

What about the “Muscle tissue measured value, mean” value ([3]; 25 mmol/L, 3 days) of the same compound?
Its value is 64.13 μm.

What about the “Muscle tissue measured value, mean” value ([3]; 25 mmol/L, 7 days) of the same compound?
Its value is 79.66 μm.

And the “Muscle tissue measured value, mean” value ([3]; 25 mmol/L, 14 days, * P<0.05 vs control side)?
The value was 123.8* μm.

What about the “Muscle tissue measured value, mean” value ([3]; 25 mmol/L, 21 days) of the same compound?
Its value is 112.1 μm.

What about the “Muscle tissue on the experimental side, histological observation” value ([3]; 25 mmol/L, 14 days, FIG. 1) of the same compound?
Its value is “significantly thickened”.

And the “Muscle tissue measured value, mean” value ([3]; 50 mmol/L, 3 days)?
The value was 73.49 μm.

What about the “Muscle tissue measured value, mean” value ([3]; 50 mmol/L, 7 days, ** P<0.01 vs control side) of the same compound?
The value was 69.14** μm.

What about the “Muscle tissue measured value, mean” value ([3]; 50 mmol/L, 14 days, * P<0.05 vs control side) of the same compound?
Its value is 119.5* μm.

And the “Muscle tissue measured value, mean” value ([3]; 50 mmol/L, 21 days)?
The value was 111.9 μm.

What about the “Muscle tissue on the experimental side, histological observation” value ([3]; 50 mmol/L, 7 days, FIG. 2) of the same compound?
The value was “significantly thickened”.

And the “Toe spread score (0~3)” value ([4]; 3 days after surgery)?
Its value is 0 ± 0.4.

And the “Toe spread score (0~3)” value ([4]; 7 days after surgery)?
Its value is 0.9 ± 0.6.

What about the “Toe spread score (0~3)” value ([4]; 10 days after surgery) of the same compound?
The value was 2 ± 0.3.

What about the “Toe spread score (0~3)” value ([4]; 14 days after surgery) of the same compound?
The value was 2.5 ± 0.5.

And the “Ear cartilage tissue measured value, mean” value (“Ear cartilage tissue” below) ([5]; 3 days)?
Its value is 158.8 μm.

What about the “Ear cartilage tissue” value ([5]; 7 days) of the same compound?
The value was 237.3 μm.

And the “Ear cartilage tissue” value ([5]; 14 days)?
Its value is 170.3 μm.

What about the “Ear cartilage tissue” value ([5]; 21 days, * P<0.05 vs control side) of the same compound?
The value was 253.5* μm.

And the “Cross-section of the ear cartilage on the experimental side, histological observation” value ([5]; Day 21, FIG. 6)?
Its value is “significantly thickened”.
